Measurements as given in PubChem BioAssay AID2060903 (Molecular Pharmacology Branch, DTP, NCI, 2025).
Where “and” joins values, the source holds several entries; their conditions need not be identical. Equal values may be shown once.

System: 377384-186-R-J1-PDC complex spheroid viability
Assay: Anticancer human tumor 377384-186-R-J1-PDC patient-derived pancreatic carcinoma cell line growth inhibition [RAS]
Conditions: for viability, T/C: stronger effect = lower value
Method in brief: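 Multi-cell-type spheroids: tumor cells plus HUVEC endothelial cells and mesenchymal stem cells. RAS-pathway inhibitors were combined with targeted agents, each dosed in half-log steps down from clinical Cmax, or from 10 microM when Cmax was unknown.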

[1] = curve of first compound, second compound 0.000949 µM
[2] = curve of first compound, second compound 0.003 µM
[3] = curve of first compound, second compound 0.00949 µM
[4] = curve of first compound, second compound 0.03 µM
[5] = curve of first compound, second compound 0.0949 µM
[6] = curve of first compound, second compound 0.3 µM
[7] = second compound 0.000949 µM, first compound 0.0316 µM
[8] = second compound 0.000949 µM, first compound 0.1 µM
[9] = second compound 0.000949 µM, first compound 0.316 µM
[10] = second compound 0.000949 µM, first compound 1 µM
[11] = second compound 0.000949 µM, first compound 3.16 µM
[12] = second compound 0.000949 µM, first compound 10 µM
[13] = second compound 0.003 µM, first compound 0.0316 µM
[14] = second compound 0.003 µM, first compound 0.1 µM
[15] = second compound 0.003 µM, first compound 0.316 µM
[16] = second compound 0.003 µM, first compound 1 µM
[17] = second compound 0.003 µM, first compound 3.16 µM
[18] = second compound 0.003 µM, first compound 10 µM
[19] = second compound 0.00949 µM, first compound 0.0316 µM
[20] = second compound 0.00949 µM, first compound 0.1 µM
[21] = second compound 0.00949 µM, first compound 0.316 µM
[22] = second compound 0.00949 µM, first compound 1 µM
[23] = second compound 0.00949 µM, first compound 3.16 µM
[24] = second compound 0.00949 µM, first compound 10 µM
[25] = second compound 0.03 µM, first compound 0.0316 µM
[26] = second compound 0.03 µM, first compound 0.1 µM
[27] = second compound 0.03 µM, first compound 0.316 µM
[28] = second compound 0.03 µM, first compound 1 µM
[29] = second compound 0.03 µM, first compound 3.16 µM
[30] = second compound 0.03 µM, first compound 10 µM
[31] = second compound 0.0949 µM, first compound 0.0316 µM
[32] = second compound 0.0949 µM, first compound 0.1 µM
[33] = second compound 0.0949 µM, first compound 0.316 µM
[34] = second compound 0.0949 µM, first compound 1 µM
[35] = second compound 0.0949 µM, first compound 3.16 µM
[36] = second compound 0.0949 µM, first compound 10 µM
[37] = second compound 0.3 µM, first compound 0.0316 µM
[38] = second compound 0.3 µM, first compound 0.1 µM
[39] = second compound 0.3 µM, first compound 0.316 µM
[40] = second compound 0.3 µM, first compound 1 µM
[41] = second compound 0.3 µM, first compound 3.16 µM
[42] = second compound 0.3 µM, first compound 10 µM
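Note: spheroids exposed to compounds for seven days before readout.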

C[C@@H](NC(=O)c1ncnc(N)c1Cl)c1ncc(C(=O)Nc2cc(C(F)(F)F)c(Cl)cn2)s1 + CCn1c(-c2cccnc2C(C)OC)c2c3cc(ccc31)N1CCOC(CC(NC(=O)C(C(C)C)N(C)C(=O)C3(F)CCN(C(=O)C#CC(C)(C)N(C)C)CC3)C(=O)N3CCCC(N3)C(=O)OCC(C)(C)C2)C1
IC50 [1]: > 10 µM | IC50 [2]: > 10 µM | IC50 [3]: > 10 µM | IC50 [4]: > 10 µM | IC50 [5]: > 10 µM | IC50 [6]: > 10 µM | viability, T/C [7]: 106% | viability, T/C [8]: 109% | viability, T/C [9]: 113% | viability, T/C [10]: 133% | viability, T/C [11]: 128% | viability, T/C [12]: 111% | viability, T/C [13]: 102% | viability, T/C [14]: 104% | viability, T/C [15]: 120% | viability, T/C [16]: 134% | viability, T/C [17]: 127% | viability, T/C [18]: 108% | viability, T/C [19]: 98% | viability, T/C [20]: 114% | viability, T/C [21]: 106% | viability, T/C [22]: 129% | viability, T/C [23]: 150% | viability, T/C [24]: 108% | viability, T/C [25]: 110% | viability, T/C [26]: 106% | viability, T/C [27]: 129% | viability, T/C [28]: 115% | viability, T/C [29]: 142% | viability, T/C [30]: 103% | viability, T/C [31]: 96.8% | viability, T/C [32]: 98.5% | viability, T/C [33]: 113% | viability, T/C [34]: 118% | viability, T/C [35]: 130% | viability, T/C [36]: 99.6% | viability, T/C [37]: 88.1% | viability, T/C [38]: 89.3% | viability, T/C [39]: 85.5% | viability, T/C [40]: 95.9% | viability, T/C [41]: 108% | viability, T/C [42]: 82.4%

CC(Nc1ccc2c(c1)OCCn1cc(N3C(=O)OCC3C(F)F)nc1-2)C(N)=O (stereo unspecified)
viability, T/C (compound 0.0316 µM): 76% [middle of 4 runs] | viability, T/C (compound 0.1 µM): 63.8% [middle of 4 runs] | viability, T/C (compound 0.316 µM): 55.8% [middle of 4 runs] | viability, T/C (compound 1 µM): 47.9% and 40.3% (2×) and 48.2% | viability, T/C (compound 3.16 µM): 33.7% [middle of 4 runs] | viability, T/C (compound 10 µM): 30.7% [middle of 4 runs] | IC50 (curve of compound): 476 nM [middle of 4 runs]

CC1(O)CCCC1n1c(=O)c(C(F)F)cc2cnc(NC3CCN(S(C)(=O)=O)CC3)nc21 (stereo unspecified) + CCn1c(-c2cc(N3CCN(C)CC3)cnc2C(C)OC)c2c3cc(ccc31)-c1csc(n1)CC(NC(=O)C1CC1C)C(=O)N1CCCC(N1)C(=O)OCC(C)(C)C2
IC50 [1]: < 0.0316 µM | IC50 [2]: < 0.0316 µM | IC50 [3]: < 0.0316 µM | IC50 [4]: < 0.0316 µM | IC50 [5]: < 0.0316 µM | IC50 [6]: < 0.0316 µM | viability, T/C [7]: 46.6% | viability, T/C [8]: 24.9% | viability, T/C [9]: 16.1% | viability, T/C [10]: 14.2% | viability, T/C [11]: 18.5% | viability, T/C [12]: 4.43% | viability, T/C [13]: 20.3% | viability, T/C [14]: 10.9% | viability, T/C [15]: 9.42% | viability, T/C [16]: 11.9% | viability, T/C [17]: 13.4% | viability, T/C [18]: 2.79% | viability, T/C [19]: 4.59% | viability, T/C [20]: 4.26% | viability, T/C [21]: 4.8% | viability, T/C [22]: 4.95% | viability, T/C [23]: 6.03% | viability, T/C [24]: 2.54% | viability, T/C [25]: 2.77% | viability, T/C [26]: 2.5% | viability, T/C [27]: 3.09% | viability, T/C [28]: 3.54% | viability, T/C [29]: 3.12% | viability, T/C [30]: 2% | viability, T/C [31]: 1.91% | viability, T/C [32]: 2.25% | viability, T/C [33]: 2.46% | viability, T/C [34]: 2.54% | viability, T/C [35]: 1.98% | viability, T/C [36]: 2.3% | viability, T/C [37]: 2% | viability, T/C [38]: 2.25% | viability, T/C [39]: 2.49% | viability, T/C [40]: 2.5% | viability, T/C [41]: 1.75% | viability, T/C [42]: 1.85%
